Ki data for ten compounds are collected here from ChEMBL document CHEMBL1212811, “Chemical phylogenetics of histone deacetylases” (Nat Chem Biol, 2010).

Targets include Histone deacetylase 5 (Homo sapiens, UniProt Q9UQL6); Histone deacetylase 3 (Homo sapiens, UniProt O15379); Histone deacetylase 1 (Homo sapiens, UniProt Q13547); Histone deacetylase 2 (Homo sapiens, UniProt Q92769); Histone deacetylase 9 (Homo sapiens, UniProt Q9UKV0); Histone deacetylase 4 (Homo sapiens, UniProt P56524).
Assay [1] deals with T1, Protein deacetylase HDAC6 (Homo sapiens, UniProt Q9UBN7).
T1 sequence (Q9UBN7 whole entry): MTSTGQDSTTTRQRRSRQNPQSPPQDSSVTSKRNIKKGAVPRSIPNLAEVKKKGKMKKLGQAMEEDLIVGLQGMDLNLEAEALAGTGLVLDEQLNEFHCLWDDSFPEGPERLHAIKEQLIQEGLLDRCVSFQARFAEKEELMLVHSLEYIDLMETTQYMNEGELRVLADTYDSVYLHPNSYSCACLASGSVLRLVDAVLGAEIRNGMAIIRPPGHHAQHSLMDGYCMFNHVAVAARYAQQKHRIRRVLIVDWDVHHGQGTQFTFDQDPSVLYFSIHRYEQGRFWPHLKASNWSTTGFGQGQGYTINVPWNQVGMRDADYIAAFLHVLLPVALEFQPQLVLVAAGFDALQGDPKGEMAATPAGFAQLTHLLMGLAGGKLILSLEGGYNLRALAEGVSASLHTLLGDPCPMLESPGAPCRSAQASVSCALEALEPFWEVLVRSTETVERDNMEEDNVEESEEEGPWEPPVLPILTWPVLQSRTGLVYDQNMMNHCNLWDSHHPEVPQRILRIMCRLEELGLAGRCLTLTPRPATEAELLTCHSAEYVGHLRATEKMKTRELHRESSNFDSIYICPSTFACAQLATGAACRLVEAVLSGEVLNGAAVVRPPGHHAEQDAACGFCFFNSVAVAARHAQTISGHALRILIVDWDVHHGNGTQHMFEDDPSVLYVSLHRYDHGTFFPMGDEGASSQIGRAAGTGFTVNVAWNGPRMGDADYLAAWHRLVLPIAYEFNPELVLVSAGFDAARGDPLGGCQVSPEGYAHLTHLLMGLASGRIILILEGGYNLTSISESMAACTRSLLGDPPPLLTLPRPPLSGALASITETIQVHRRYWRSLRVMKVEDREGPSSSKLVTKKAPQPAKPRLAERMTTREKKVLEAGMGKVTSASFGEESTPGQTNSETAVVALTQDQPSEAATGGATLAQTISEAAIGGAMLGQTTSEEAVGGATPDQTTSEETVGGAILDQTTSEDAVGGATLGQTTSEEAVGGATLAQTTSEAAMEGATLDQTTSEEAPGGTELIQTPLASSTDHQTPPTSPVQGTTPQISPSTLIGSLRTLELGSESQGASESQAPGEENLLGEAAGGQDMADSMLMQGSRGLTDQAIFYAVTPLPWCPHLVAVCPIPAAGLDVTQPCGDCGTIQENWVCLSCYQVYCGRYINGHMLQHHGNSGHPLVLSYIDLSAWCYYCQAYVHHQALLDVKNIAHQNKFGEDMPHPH

Another assay has as its target T2, Histone deacetylase 7 (Homo sapiens, UniProt Q8WUI4).
T2 sequence (Q8WUI4 whole entry): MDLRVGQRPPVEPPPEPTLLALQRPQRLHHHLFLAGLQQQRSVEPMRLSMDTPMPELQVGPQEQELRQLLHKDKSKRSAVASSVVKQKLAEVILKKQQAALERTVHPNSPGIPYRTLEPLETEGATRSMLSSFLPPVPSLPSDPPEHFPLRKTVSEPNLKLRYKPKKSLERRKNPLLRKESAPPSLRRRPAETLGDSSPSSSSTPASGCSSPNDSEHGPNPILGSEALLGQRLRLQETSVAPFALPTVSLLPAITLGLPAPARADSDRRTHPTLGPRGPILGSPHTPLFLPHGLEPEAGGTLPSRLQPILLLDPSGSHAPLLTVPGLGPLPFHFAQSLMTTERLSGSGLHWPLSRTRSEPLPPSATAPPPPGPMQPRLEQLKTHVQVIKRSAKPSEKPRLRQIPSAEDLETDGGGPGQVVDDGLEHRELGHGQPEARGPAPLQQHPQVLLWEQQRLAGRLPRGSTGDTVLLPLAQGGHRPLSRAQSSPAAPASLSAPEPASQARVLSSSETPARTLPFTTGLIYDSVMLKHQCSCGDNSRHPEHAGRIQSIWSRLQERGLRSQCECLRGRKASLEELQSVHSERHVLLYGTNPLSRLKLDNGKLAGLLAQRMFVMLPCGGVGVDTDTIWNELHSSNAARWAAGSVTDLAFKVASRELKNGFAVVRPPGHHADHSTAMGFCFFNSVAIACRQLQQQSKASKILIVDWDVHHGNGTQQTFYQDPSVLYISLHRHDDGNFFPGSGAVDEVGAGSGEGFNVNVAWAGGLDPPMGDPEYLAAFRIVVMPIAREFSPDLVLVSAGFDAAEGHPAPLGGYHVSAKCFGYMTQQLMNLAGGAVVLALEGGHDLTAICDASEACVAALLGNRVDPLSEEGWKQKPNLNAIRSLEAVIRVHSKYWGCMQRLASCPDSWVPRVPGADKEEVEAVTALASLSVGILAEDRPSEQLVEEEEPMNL

A further assay addresses T3, Histone deacetylase 8 (Homo sapiens, UniProt Q9BY41).
T3 sequence (Q9BY41 whole entry): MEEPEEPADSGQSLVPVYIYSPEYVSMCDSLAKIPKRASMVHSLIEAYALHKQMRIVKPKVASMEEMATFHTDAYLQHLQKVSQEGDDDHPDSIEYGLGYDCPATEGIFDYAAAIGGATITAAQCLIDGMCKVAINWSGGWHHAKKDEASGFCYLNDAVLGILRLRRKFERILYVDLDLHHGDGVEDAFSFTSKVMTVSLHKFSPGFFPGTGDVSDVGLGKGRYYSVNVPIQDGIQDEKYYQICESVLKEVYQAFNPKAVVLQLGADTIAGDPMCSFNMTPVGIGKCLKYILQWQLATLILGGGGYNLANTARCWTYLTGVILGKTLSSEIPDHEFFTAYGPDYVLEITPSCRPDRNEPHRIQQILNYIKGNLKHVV

Usually Ki stands for a measure of affinity in units of concentration, obtained from inhibition or displacement. A low value points to higher affinity.

Sequence of Histone deacetylase 4 (P56524 whole entry): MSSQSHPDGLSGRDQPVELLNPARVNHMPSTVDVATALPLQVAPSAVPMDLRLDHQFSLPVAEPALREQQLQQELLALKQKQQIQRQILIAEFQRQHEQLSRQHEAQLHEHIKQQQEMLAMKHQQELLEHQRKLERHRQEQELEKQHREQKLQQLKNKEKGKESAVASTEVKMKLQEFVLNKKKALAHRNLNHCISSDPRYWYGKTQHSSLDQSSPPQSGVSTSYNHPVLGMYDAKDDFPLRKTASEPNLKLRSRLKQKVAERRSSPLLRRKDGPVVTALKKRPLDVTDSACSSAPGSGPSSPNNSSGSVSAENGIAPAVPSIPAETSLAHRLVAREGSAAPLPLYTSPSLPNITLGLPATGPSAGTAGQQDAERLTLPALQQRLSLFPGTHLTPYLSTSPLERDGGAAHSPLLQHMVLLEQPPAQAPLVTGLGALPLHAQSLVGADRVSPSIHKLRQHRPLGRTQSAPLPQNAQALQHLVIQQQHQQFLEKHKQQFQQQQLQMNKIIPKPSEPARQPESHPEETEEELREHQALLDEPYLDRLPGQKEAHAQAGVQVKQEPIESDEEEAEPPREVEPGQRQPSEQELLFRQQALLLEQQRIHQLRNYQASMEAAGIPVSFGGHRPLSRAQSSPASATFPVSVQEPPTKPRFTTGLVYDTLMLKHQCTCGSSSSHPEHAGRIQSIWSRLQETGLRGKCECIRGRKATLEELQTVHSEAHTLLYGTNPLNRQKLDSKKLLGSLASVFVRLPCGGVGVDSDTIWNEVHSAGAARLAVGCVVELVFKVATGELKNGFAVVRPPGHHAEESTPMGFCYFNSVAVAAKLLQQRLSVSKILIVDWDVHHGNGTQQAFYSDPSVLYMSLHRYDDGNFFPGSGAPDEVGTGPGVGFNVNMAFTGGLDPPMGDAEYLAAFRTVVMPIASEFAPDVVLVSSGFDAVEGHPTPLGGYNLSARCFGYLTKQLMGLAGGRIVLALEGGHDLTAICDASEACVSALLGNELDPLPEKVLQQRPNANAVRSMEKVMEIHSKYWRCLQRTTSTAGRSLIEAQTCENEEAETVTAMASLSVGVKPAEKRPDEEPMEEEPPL
Sequence of Histone deacetylase 2 (Q92769 whole entry): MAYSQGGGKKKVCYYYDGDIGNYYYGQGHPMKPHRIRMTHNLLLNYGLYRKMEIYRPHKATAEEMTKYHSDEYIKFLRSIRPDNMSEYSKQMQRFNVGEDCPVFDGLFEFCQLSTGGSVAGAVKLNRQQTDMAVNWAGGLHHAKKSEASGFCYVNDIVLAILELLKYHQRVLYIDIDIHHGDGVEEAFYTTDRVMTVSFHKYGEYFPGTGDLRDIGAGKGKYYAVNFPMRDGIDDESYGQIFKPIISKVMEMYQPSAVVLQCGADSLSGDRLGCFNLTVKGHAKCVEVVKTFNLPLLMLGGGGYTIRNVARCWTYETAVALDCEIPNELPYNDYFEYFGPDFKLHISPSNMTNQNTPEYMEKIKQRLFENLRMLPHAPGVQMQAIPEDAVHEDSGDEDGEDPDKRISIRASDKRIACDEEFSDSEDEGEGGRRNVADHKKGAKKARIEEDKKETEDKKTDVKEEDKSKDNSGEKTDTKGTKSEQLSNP
Sequence of Histone deacetylase 9 (Q9UKV0 whole entry): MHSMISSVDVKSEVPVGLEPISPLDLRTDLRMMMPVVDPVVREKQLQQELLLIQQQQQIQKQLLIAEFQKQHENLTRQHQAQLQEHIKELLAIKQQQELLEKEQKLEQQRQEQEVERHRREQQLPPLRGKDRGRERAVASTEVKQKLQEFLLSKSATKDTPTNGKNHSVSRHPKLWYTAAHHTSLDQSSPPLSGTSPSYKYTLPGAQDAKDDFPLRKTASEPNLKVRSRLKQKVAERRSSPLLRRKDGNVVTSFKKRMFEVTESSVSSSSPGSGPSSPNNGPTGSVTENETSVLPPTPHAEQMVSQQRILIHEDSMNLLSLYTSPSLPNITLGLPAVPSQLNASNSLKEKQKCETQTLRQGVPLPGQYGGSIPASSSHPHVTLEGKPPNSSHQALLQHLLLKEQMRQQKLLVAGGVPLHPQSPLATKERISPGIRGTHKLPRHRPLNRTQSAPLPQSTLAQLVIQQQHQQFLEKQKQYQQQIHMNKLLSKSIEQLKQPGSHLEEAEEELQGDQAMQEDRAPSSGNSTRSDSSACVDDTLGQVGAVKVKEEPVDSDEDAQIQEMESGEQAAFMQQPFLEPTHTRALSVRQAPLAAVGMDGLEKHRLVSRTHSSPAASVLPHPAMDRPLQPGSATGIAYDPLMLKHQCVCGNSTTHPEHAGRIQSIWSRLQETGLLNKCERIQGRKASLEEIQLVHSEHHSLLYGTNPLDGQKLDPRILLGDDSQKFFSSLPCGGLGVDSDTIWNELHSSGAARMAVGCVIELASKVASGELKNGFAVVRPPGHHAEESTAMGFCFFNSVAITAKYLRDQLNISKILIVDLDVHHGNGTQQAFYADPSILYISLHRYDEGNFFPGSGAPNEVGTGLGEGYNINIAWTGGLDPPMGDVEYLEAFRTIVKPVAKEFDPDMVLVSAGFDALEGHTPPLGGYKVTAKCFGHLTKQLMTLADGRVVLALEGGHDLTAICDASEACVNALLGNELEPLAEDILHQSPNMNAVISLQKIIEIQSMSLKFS
Sequence of Histone deacetylase 1 (Q13547 whole entry): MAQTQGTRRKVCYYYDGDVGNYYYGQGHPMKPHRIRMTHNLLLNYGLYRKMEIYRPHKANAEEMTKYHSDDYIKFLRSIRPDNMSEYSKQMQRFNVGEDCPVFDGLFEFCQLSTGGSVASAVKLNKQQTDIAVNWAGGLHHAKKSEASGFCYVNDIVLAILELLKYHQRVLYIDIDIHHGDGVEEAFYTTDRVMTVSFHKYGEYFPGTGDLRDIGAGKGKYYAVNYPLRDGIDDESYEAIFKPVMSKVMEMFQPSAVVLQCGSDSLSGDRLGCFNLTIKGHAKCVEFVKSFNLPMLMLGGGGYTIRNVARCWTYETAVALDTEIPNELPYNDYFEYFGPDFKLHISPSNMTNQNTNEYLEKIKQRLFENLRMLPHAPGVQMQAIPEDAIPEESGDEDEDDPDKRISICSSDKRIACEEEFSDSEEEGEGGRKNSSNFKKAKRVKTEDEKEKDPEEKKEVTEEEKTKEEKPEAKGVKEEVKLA
Sequence of Histone deacetylase 5 (Q9UQL6 whole entry): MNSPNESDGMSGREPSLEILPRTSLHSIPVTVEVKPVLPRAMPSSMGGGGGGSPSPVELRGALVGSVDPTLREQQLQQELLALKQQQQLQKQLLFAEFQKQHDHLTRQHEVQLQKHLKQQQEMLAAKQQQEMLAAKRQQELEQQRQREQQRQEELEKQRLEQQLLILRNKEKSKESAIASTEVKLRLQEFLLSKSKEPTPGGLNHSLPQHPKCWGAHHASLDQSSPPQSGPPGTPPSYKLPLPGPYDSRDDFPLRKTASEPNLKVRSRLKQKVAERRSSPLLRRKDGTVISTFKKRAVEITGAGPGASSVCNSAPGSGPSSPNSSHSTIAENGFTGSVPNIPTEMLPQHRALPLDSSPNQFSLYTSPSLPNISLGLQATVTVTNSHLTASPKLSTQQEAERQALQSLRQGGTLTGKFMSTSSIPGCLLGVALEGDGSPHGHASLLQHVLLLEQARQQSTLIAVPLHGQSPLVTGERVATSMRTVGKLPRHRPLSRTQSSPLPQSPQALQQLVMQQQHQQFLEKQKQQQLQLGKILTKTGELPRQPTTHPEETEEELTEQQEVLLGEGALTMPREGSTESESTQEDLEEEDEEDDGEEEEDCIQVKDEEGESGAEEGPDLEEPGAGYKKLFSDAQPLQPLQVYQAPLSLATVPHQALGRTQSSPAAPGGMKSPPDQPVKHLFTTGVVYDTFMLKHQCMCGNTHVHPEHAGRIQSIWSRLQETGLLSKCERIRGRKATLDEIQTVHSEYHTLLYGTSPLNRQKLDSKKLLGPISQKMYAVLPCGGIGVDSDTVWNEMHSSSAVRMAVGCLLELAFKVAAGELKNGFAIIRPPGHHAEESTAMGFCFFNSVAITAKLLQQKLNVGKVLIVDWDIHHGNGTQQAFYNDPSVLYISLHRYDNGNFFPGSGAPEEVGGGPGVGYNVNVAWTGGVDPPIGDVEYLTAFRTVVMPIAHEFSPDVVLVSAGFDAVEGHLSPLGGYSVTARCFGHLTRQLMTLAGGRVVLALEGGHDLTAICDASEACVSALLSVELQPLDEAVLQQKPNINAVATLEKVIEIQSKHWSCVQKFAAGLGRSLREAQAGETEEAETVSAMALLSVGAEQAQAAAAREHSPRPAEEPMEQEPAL
Sequence of Histone deacetylase 3 (O15379 whole entry): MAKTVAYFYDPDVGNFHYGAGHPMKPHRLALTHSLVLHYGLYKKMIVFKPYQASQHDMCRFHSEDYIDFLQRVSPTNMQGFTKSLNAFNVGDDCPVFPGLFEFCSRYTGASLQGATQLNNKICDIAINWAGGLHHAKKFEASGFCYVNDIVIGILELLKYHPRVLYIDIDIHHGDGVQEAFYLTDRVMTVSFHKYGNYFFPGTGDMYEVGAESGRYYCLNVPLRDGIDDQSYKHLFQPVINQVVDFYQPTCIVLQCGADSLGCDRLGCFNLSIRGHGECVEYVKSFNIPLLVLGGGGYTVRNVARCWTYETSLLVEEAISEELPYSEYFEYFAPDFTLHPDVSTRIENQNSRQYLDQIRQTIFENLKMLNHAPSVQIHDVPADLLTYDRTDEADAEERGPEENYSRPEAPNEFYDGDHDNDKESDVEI

For the compound `O=C(/C=C/c1ccc(C(=O)N/N=C/c2ccc(O)c(O)c2O)cc1)NO`, the Ki is 180 nM at Histone deacetylase 5; 120 nM at Histone deacetylase 3; 120 nM on Histone deacetylase 1; 70 nM at Histone deacetylase 2; 32 nM in assay [1]; 1100 nM on Histone deacetylase 7. In addition, the Ki on Histone deacetylase 9 worked out at 1400 nM; at Histone deacetylase 4, 950 nM; on Histone deacetylase 8, 50 nM.
Regarding `Cn1c(/C=C/C(=O)NO)ccc1C(=O)Cc1ccccc1`, the Ki came to 11500 nM on Histone deacetylase 5; 250 nM at Histone deacetylase 3; 55 nM on Histone deacetylase 1; 125 nM on Histone deacetylase 2; 30 nM in assay [1]; 7000 nM on Histone deacetylase 7. Moreover, the Ki at Histone deacetylase 9 was 10000 nM; on Histone deacetylase 4 it was 17500 nM; at Histone deacetylase 8, 600 nM.
Take `O=C(/C=C/c1cccc(S(=O)(=O)Nc2ccccc2)c1)NO` [BELINOSTAT]: the inhibition constant (Ki) in assay [1] stood at 1.6 nM; at Histone deacetylase 4, 380 nM.
Take `C=C[C@@H](O)[C@@H]1O[C@H]1/C=C/[C@@H]1O[C@H]1[C@@H](C)O` [DEPUDECIN]: the Ki is 14500 nM at Histone deacetylase 3, 5500 nM at Histone deacetylase 1 and 12500 nM on Histone deacetylase 2.
As to `CCN(CC)Cc1ccc2cc(COC(=O)Nc3ccc(C(=O)NO)cc3)ccc2c1` [GIVINOSTAT], the figures for the Ki at Histone deacetylase 5, on Histone deacetylase 9 and on Histone deacetylase 4 were 600 nM, 390 nM and 1050 nM, respectively.
For the compound `O=C(O)CCCCCCC(=O)Nc1ccc([C@H]2O[C@@H](CSc3nc(-c4ccccc4)c(-c4ccccc4)o3)C[C@@H](c3ccc(CO)cc3)O2)cc1` [NILTUBACIN], the Ki in assay [1] stood at 2200 nM; on Histone deacetylase 8, 750 nM.
For the compound `O=C(CCCc1ccccc1)NO` [PHENYLBUTYRYLHYDROXAMIC ACID], the Ki at Histone deacetylase 5 turned out to be 16000 nM; on Histone deacetylase 2 it was 430 nM; in assay [1], 150 nM; on Histone deacetylase 8, 1850 nM.
Turning to `O=C(CCCCCCC(=O)Nc1cccnc1)NO` [PYROXAMIDE], the Ki worked out at 4750 nM at Histone deacetylase 5; 8 nM on Histone deacetylase 3; 36000 nM at Histone deacetylase 2; 4.8 nM in [1]; 1000 nM on Histone deacetylase 8.
Compound `C/C=C1\NC(=O)[C@H]2CSSCC/C=C/[C@H](CC(=O)N[C@H](C(C)C)C(=O)N2)OC(=O)[C@H](C(C)C)NC1=O` [ROMIDEPSIN] returned a Ki at Histone deacetylase 1 of 0.0015 nM.
As for `O=C(CCCCCCC(=O)NO)NO` [SUBEROHYDROXAMIC ACID], the results for the Ki (on Histone deacetylase 5; on Histone deacetylase 3; in assay [1]) were 9500 nM, 125 nM and 14.5 nM, respectively.
